Laboratory results from patent US10689377B2 (Mirati Therapeutics, Inc., priority 2017, dated 2020).

Molecular target: KRas G12C (Homo sapiens, UniProt P01116, G12C)
Assay: Cellular inhibition of KRas G12C measured by Phospho-ERK in NCI-H358 cells
Format: cell-based
Settings: pERK(Thr202/Tyr204) normalized with GAPDH, NCI-H358 cells, 3 hours; read-out: IC50
Description: Cells were plated in poly-D-Lysine coated 96-well plates at a concentration of 50,000 cells/well and allowed to attach for 8-12 hours. Diluted compounds were then added at a final concentration of 0.5% DMSO. After 3 hours, the medium was removed, 150 μL of 4% formaldehyde was added and the plates were incubated for 20 minutes. The plates were washed with PBS, and permeabilized using 150 μL of ice cold 100% methanol for 10 minutes. Non-specific antibody binding to the plates was blocked using 100 μL Licor Blocking Buffer (Li-Cor Biotechnology, Lincoln Nebr.) for 1 hour at room temperature. Positive control samples and samples lacking cells were parallel processed with test samples as standards.
The amount Phospho-ERK was determined using an antibody specific for the phosphorylated form of ERK and compared to the amount of GAPDH. […] The plates were incubated for 2 hours at room temperature. The plates were washed with PBS+0.05% Tween 20.
Secondary antibodies used to visualize primary antibodies were added as follows: Anti-rabbit-680 diluted 1:1000 and Anti-mouse-800 diluted 1:1000 in Licor Block+0.05% Tween 20 and incubated for 1 hour at room temperature. The plates were washed with PBS+0.05% Tween 20. A 100 μL aliquot of PBS was added to each well and the plates were read on a LICOR AERIUS plate reader.
The pERK(Thr202/Tyr204) signal was normalized with the GAPDH signal and percent of DMSO control values were calculated. IC50 values were generated using a 4 parameter fit of the dose response curve. Key: “A”≥0.0001-≤1 μM; “B”>1 μM and ND=not determined.

KRas G12C, sequence (P01116 1-188 isoform P01116-2 G12C): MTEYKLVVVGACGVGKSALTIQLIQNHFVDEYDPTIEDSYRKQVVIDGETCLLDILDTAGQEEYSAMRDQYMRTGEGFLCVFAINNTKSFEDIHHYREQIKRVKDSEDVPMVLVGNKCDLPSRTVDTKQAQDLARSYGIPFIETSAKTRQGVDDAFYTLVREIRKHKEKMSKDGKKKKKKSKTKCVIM

Row | Structure (SMILES) | IC50 [nM]
1 | C=CC(=O)N1CCN(c2nc(OC[C@@H]3CCCN3C)nc3c2CCN(c2cccc4ccccc24)C3)C(C)(C)C1 [Example 354, 1-[3,3-dimethyl-4-[2-[[(2S)-1-methylpyrrolidin-2-yl]methoxy]-7-(1-naphthyl)-6,8-dihydro-5H-pyrido[3,4-d]pyrimidin-4-yl]piperazin-1-yl]prop-2-en-1-one] | > 1000
2 | C=CC(=O)N1CCN(c2nc(OC[C@@H]3CCCN3C)nc3c2CCN(c2cccc4cnccc24)C3)CC1CC#N (stereo partly drawn) [Example 292, 2-[4-[7-(5-isoquinolyl)-2-[[(2S)-1-methylpyrrolidin-2-yl]methoxy]-6,8-dihydro-5H-pyrido[3,4-d]pyrimidin-4-yl]-1-prop-2-enoyl-piperazin-2-yl]acetonitrile] | > 1000
3 | C=CC(=O)N1CCN(c2nc(OC[C@@H]3CCC(=O)N3)nc3c2CCN(c2cc(O)cc4ccccc24)C3)CC1 [Example 57, (S)-5-(((4-(4-acryloylpiperazin-1-yl)-7-(3-hydroxynaphthalen-1-yl)-5,6,7,8-tetrahydropyrido[3,4-d]pyrimidin-2-yl)oxy)methyl)pyrrolidin-2-one] | > 1000
4 | C=CC(=O)N1CCN(c2nc(NC[C@@H]3CCCN3C)nc3c2CCN(c2cccc4ccccc24)C3)C[C@@H]1CC#N [Example 408, 2-((S)-1-acryloyl-4-(2-((((S)-1-methylpyrrolidin-2-yl)methyl)amino)-7-(naphthalen-1-yl)-5,6,7,8-tetrahydropyrido[3,4-d]pyrimidin-4-yl)piperazin-2-yl)acetonitrile] | > 1000
5 | C=CC(=O)N1CCN(c2nc(OC[C@@H]3CCCN3C)nc3c2CCN(c2cccc4ccc(OC)cc24)C3)CC1CC#N (stereo partly drawn) [Example 255, 2-[4-[7-(7-methoxy-1-naphthyl)-2-[[(2S)-1-methylpyrrolidin-2-yl]methoxy]-6,8-dihydro-5H-pyrido[3,4-d]pyrimidin-4-yl]-1-prop-2-enoyl-piperazin-2-yl]acetonitrile] | > 1000
6 | C=CC(=O)N1CCN(c2nc(OCCCN3CCCCC3)nc3c2CCN(c2c(C)ccc4[nH]ncc24)C3)CC1 [Example 160, 1-(4-(7-(5-methyl-1H-indazol-4-yl)-2-(3-(piperidin-1-yl)propoxy)-5,6,7,8-tetrahydropyrido[3,4-d]pyrimidin-4-yl)piperazin-1-yl)prop-2-en-1-one] | > 1000
7 | C=C(F)C(=O)N1CCN(c2ncnc3c2CCN(c2cccc4cccc(C)c24)C3)C[C@@H]1CC#N [Example 611, (S)-2-(1-(2-fluoroacryloyl)-4-(7-(8-methylnaphthalen-1-yl)-5,6,7,8-tetrahydropyrido[3,4-d]pyrimidin-4-yl)piperazin-2-yl)acetonitrile] | > 1000
8 | C=C(Cl)C(=O)N1CCN(c2nc(OC[C@@H]3CCCN3C)nc3c2CCN(c2cccc(C)c2C)C3)C[C@@H]1CC#N [Example 473, 2-[(2S)-1-(2-chloroprop-2-enoyl)-4-[7-(2,3-dimethylphenyl)-2-[[(2S)-1-methylpyrrolidin-2-yl]methoxy]-6,8-dihydro-5H-pyrido[3,4-d]pyrimidin-4-yl]piperazin-2-yl]acetonitrile] | 0.1 to 1000
9 | C=CC(=O)N1CCN(c2nc(OC[C@@H]3CCCN3C)nc3c2CCN(c2cccc(Cl)c2C(F)(F)F)C3)CC1CC#N (stereo partly drawn) [Example 277, 2-(1-acryloyl-4-(7-(3-chloro-2-(trifluoromethyl)phenyl)-2-(((S)-1-methylpyrrolidin-2-yl)methoxy)-5,6,7,8-tetrahydropyrido [3,4-d]pyrimidin-4-yl)piperazin-2-yl)acetonitrile] | 0.1 to 1000
10 | C=CC(=O)N1CCN(c2nc(OCCN(C)CCO)nc3c2CCN(c2cc(O)cc4ccccc24)C3)CC1 [Example 83, 1-(4-(2-(2-((2-hydroxyethyl)(methyl)amino)ethoxy)-7-(3-hydroxynaphthalen-1-yl)-5,6,7,8-tetrahydropyrido[3,4-d]pyrimidin-4-yl)piperazin-1-yl)prop-2-en-1-one] | > 1000
11 | C=CC(=O)N1CCN(c2nc(OC[C@@H]3C[C@@H](OC)CN3C)nc3c2CCN(c2cc(OC)cc4ccccc24)C3)CC1 [Example 356, 1-[4-[2-[[(2S,4R)-4-methoxy-1-methyl-pyrrolidin-2-yl]methoxy]-7-(3-methoxy-1-naphthyl)-6,8-dihydro-5H-pyrido[3,4-d]pyrimidin-4-yl]piperazin-1-yl]prop-2-en-1-one] | > 1000
12 | C=CC(=O)N1CC2(C1)CN(c1nc(OC(C)CN(C)C)nc3c1CCN(c1cc(O)cc4ccccc14)C3)C2 (centres unmarked) [Example 18, 1-(6-(2-((1-(dimethylamino)propan-2-yl)oxy)-7-(3-hydroxynaphthalen-1-yl)-5,6,7,8-tetrahydropyrido[3,4-d]pyrimidin-4-yl)-2,6-diazaspiro[3.3]heptan-2-yl)prop-2-en-1-one] | > 1000
13 | C=C(F)C(=O)N1CCN(c2nc(OC[C@@H]3CCCN3C)nc3c2CCN(c2cccc4cccc(CC)c24)C3)C[C@@H]1CC#N [Example 608, 2-[(2S)-4-[7-(8-ethyl-1-naphthyl)-2-[[(2S)-1-methylpyrrolidin-2-yl]methoxy]-6,8-dihydro-5H-pyrido[3,4-d]pyrimidin-4-yl]-1-(2-fluoroprop-2-enoyl)piperazin-2-yl]acetonitrile] | 0.1 to 1000

The next lines start with the values.

Row | IC50 [nM] | Structure (SMILES)
14 | 0.1 to 1000 | C=CC(=O)N1CCN(c2nc(OC[C@@H]3CCCN3C)nc3c2CCN(c2cccc(Cl)c2OC)C3)C[C@@H]1CC#N [Example 422, 2-((S)-1-acryloyl-4-(7-(3-chloro-2-methoxyphenyl)-2-(((S)-1-methylpyrrolidin-2-yl)methoxy)-5,6,7,8-tetrahydropyrido[3,4-d]pyrimidin-4-yl)piperazin-2-yl)acetonitrile]
15 | 0.1 to 1000 | C=C(F)C(=O)N1CCN(c2nc(OC[C@@H]3CCCN3C)nc3c2CCN(c2cncc4ccc(F)cc24)C3)C[C@@H]1CC#N [Example 609, 2-[(2S)-4-[7-(6-fluoro-4-isoquinolyl)-2-[[(2S)-1-methylpyrrolidin-2-yl]methoxy]-6,8-dihydro-5H-pyrido[3,4-d]pyrimidin-4-yl]-1-(2-fluoroprop-2-enoyl)piperazin-2-yl]acetonitrile]
16 | 0.1 to 1000 | C=CC(=O)N1CCN(c2nc(OC[C@@H]3CCCN3C)nc3c2CCN(c2cncc4ccccc24)C3)CC1CC#N (stereo partly drawn) [Example 291, 2-[4-[7-(4-isoquinolyl)-2-[[(2S)-1-methylpyrrolidin-2-yl]methoxy]-6,8-dihydro-5H-pyrido[3,4-d]pyrimidin-4-yl]-1-prop-2-enoyl-piperazin-2-yl]acetonitrile]
17 | 0.1 to 1000 | C=CC(=O)N1CCN(c2nc(OC[C@@H]3CCCN3C)nc3c2CCN(c2cccnc2C(F)(F)F)C3)CC1CC#N (stereo partly drawn) [Example 226, 2-(1-acryloyl-4-(2-(((S)-1-methylpyrrolidin-2-yl)methoxy)-7-(2-(trifluoromethyl)pyridin-3-yl)-5,6,7,8-tetrahydropyrido[3,4-d]pyrimidin-4-yl)piperazin-2-yl)acetonitrile]
18 | 0.1 to 1000 | C=CC(=O)N1CCN(c2nc(OC[C@@H]3CCCN3CC)nc3c2CCN(c2cccc(Cl)c2C(F)(F)F)C3)C[C@@H]1CC#N [Example 339, 2-((S)-1-acryloyl-4-(7-(3-chloro-2-(trifluoromethyl)phenyl)-2-(((S)-1-ethylpyrrolidin-2-yl)methoxy)-5,6,7,8-tetrahydropyrido[3,4-d]pyrimidin-4-yl)piperazin-2-yl)acetonitrile]
19 | 0.1 to 1000 | C=CC(=O)N1CCN(c2nc(OC[C@@H]3CCCN3C)nc3c2CCN(c2c(C)ccc4cn[nH]c24)C3)CC1CC#N (some centres unmarked) [Example 238]
20 | 0.1 to 1000 | C=CC(=O)N1CCN(c2nc(OC[C@H]3CCCN3C)nc3c2CCN(c2ccc(F)c4ccccc24)C3)C[C@@H]1CC#N [Example 318, 2-[(2S)-4-[7-(4-fluoro-1-naphthyl)-2-[[(2R)-1-methylpyrrolidin-2-yl]methoxy]-6,8-dihydro-5H-pyrido[3,4-d]pyrimidin-4-yl]-1-prop-2-enoyl-piperazin-2-yl]acetonitrile]
21 | 0.1 to 1000 | C=CC(=O)N1CCN(c2nc(OCC3CCN(C4CCCCC4)C3)nc3c2CCN(c2cc(O)cc4ccccc24)C3)CC1 (centres unmarked) [Example 132, 1-[4-[2-[(1-cyclohexylpyrrolidin-3-yl)methoxy]-7-(3-hydroxy-1-naphthyl)-6,8-dihydro-5H-pyrido[3,4-d]pyrimidin-4-yl]piperazin-1-yl]prop-2-en-1-one]
22 | 0.1 to 1000 | C=CC(=O)N1CCN(c2nc(OC[C@H]3CN(C)C4(CC4)CO3)nc3c2CCN(c2cccc4ccccc24)C3)C[C@@H]1CC#N [Example 448, 2-((S)-1-Acryloyl-4-(2-(((R)-4-methyl-7-oxa-4-azaspiro[2.5]octan-6-yl)methoxy)-7-(naphthalen-1-yl)-5,6,7,8-tetrahydropyrido[3,4-d]pyrimidin-4-yl)piperazin-2-yl)acetonitrile]
23 | 0.1 to 1000 | C=CC(=O)N1CCN(c2nc(OC[C@@H]3CCCN3CC(=O)N(C)C)nc3c2CCN(c2cccc4ccccc24)C3)CC1CC#N (stereo partly drawn) [Example 398, 2-((2S)-2-(((4-(4-acryloyl-3-(cyanomethyl)piperazin-1-yl)-7-(naphthalen-1-yl)-5,6,7,8-tetrahydropyrido[3,4-d]pyrimidin-2-yl)oxy)methyl)pyrrolidin-1-yl)-N,N-dimethylacetamide]
